Among the data in patent US8921364B2, “Modulators of calcium release-activated calcium channel” (Rhizen Pharmaceuticals SA, priority 2009, dated 2014) are IC50 and inhibition values, retold here.

The structures appear in SMILES notation. Structures can show the parent of a compound that is named as a salt.

For the first experiment, the target named is CRAC channels (Homo sapiens (Human), UniProt Q96D31). The experiment can be described thus: In-vitro CRAC channel inhibition assay in Jurkat cells (thapsigargin-induced calcium influx). The class given is cell-based.
Sequence of CRAC channels (Q96D31 whole entry): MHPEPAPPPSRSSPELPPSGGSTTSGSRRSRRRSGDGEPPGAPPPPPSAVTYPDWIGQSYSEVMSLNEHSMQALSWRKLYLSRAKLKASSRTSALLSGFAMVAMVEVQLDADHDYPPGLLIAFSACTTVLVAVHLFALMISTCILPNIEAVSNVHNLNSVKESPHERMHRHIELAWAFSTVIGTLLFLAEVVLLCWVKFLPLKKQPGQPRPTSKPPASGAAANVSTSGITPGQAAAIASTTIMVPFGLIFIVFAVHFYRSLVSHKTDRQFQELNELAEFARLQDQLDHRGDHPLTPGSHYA
Conditions: not given
How it is done: Inhibition of CRAC channels was determined following thapsigargin (Sigma, Cat # T9033) induced endoplasmic calcium release in Jurkat cells. […] Cells were centrifuged and re-suspended in equal volumes ° f Ca^2+ and Mg^2+ free Hanks buffer and Fluo-8 NW dye (ABD Bioquest, Inc., Sunnyvale, Calif.) loading solution at 2×10^5 cells/100 μl/well in 96-well black plate. Plate is incubated at 37° C., 5% CO2 for 30 min followed by further 15 min incubation at room temperature. Test compounds (DMSO stocks diluted in Ca^2+ and Mg^2+ free Hanks buffer) at desired concentrations were added to the wells and incubated for […] Thapsigargin (1 μM final concentration) was added to the wells and incubated for 15 min to inhibit the Sarco-endoplasmic reticulum Ca^2+ ATPase pump thereby depleting endoplasmic calcium and raising cytosolic calcium concentrations. Store-operated calcium entry was initiated by adding extracellular Ca^2+ to a final concentration of 1.8 mM. Fluorescence was monitored over […] on a plate reader (BMG Labtech., Germany) with excitation at 485 nm and an emission wavelength at 520 nm. Data were analyzed using GraphPad Prism. IC50 for each compound was determined based on the percent inhibition of thapsigargin-induced calcium influx into cells.
Usually IC50 stands for the concentration at which inhibition is half-maximal. With `Cc1oncc1C(=O)Nc1ccc(-n2nc(C3CC3)cc2C2CC2)cc1` [Example 4, N-[4-(3,5-dicyclopropyl-1H-pyrazol-1-yl)phenyl]-5-methylisoxazole-4-carboxamide], the IC50 stood at 0.256 µM.

The same experiment, now with this note: Jurkat cells, 1 uM, thapsigargin-induced calcium influx.
As a reminder, the inhibition is the relative decrease from the control value, in per cent. As for `O=C(Nc1ccc(-n2nc(C3CC3)cc2C2CC2)c(F)c1)c1ccncc1` [Example 35, N-[4-(3,5-dicyclopropyl-1H-pyrazol-1-yl)-3-fluorophenyl]isonicotinamide hydrochloride], the inhibition at 1 µM was found to be 100%.

The experiment is the same for the next values; noted with them: Jurkat cells, thapsigargin-induced calcium influx.
In the case of `Cc1nnsc1C(=O)Nc1ccc(-n2nc(C3CC3)cc2C2CC2)cc1` [Example 1, N-[4-(3,5-dicyclopropyl-1H-pyrazol-1-yl)phenyl]-4-methyl-1,2,3-thiadiazole-5-carboxamide], the IC50 is 0.0624 µM. For `Cc1ncsc1C(=O)Nc1ccc(-n2nc(C3CC3)cc2C2CC2)cc1` [Example 2, N-[4-(3,5-dicyclopropyl-1H-pyrazol-1-yl)phenyl]-4-methylthiazole-5-carboxamide], the IC50 came to 0.207 µM. The same measure, in the same setting: next, `Cc1ccccc1C(=O)Nc1ccc(-n2nc(C3CC3)cc2C2CC2)cc1` [Example 7, N-[4-(3,5-dicyclopropyl-1H-pyrazol-1-yl)phenyl]-2-methylbenzamide]: 0.0364 µM; `O=C(Nc1ccc(-n2nc(C3CC3)cc2C2CC2)cc1)c1ccncc1F` [Example 16, N-[4-(3,5-dicyclopropyl-1H-pyrazol-1-yl)phenyl]-3-fluoroisonicotinamide]: 0.244 µM. For `O=C(Nc1ccc(-n2nc(C3CC3)cc2C2CC2)cc1)c1c(Cl)cncc1Cl` [Example 17, 3,5-dichloro-N-(4-(3,5-dicyclopropyl-1H-pyrazol-1-yl)phenyl)isonicotinamide], the IC50 came out at 0.13 µM.

`O=C(Cc1ccccc1)Nc1ccc(-n2nc(C3CC3)cc2C2CC2)cc1` [Example 19, N-[4-(3,5-dicyclopropyl-1H-pyrazol-1-yl)phenyl]-2-phenylacetamide]: the IC50 is 0.457 µM.

For the compound `O=C(Cc1ccccn1)Nc1ccc(-n2nc(C3CC3)cc2C2CC2)cc1` [Example 22, N-[4-(3,5-dicyclopropyl-1H-pyrazol-1-yl)phenyl]-2-(pyridin-2-yl)acetamide hydrochloride], the half-inhibitory concentration (IC50) was 0.968 µM. On to `Cc1nnsc1C(=O)Nc1ccc(-n2nc(C3CC3)cc2C2CC2)c(F)c1` [Example 28, N-[4-(3,5-dicyclopropyl-1H-pyrazol-1-yl)-3-fluorophenyl]-4-methyl-1,2,3-thiadiazole-5-carboxamide], for which the IC50 turned out to be 0.0603 µM.

For the compound `O=C(Nc1ccc(-n2nc(C3CC3)cc2C2CC2)c(F)c1)c1c(F)cccc1F` [Example 33, N-[4-(3,5-dicyclopropyl-1H-pyrazol-1-yl)-3-fluorophenyl]-2,6-difluorobenzamide], the IC50 was 0.145 µM. The same measure, in the same setting: for `O=C(Nc1ccc(-n2nc(C3CC3)cc2C2CC2)c(F)c1)c1ccncc1` [Example 35, N-[4-(3,5-dicyclopropyl-1H-pyrazol-1-yl)-3-fluorophenyl]isonicotinamide hydrochloride] the value was 0.185 µM; for `Cc1ncncc1C(=O)Nc1ccc(-n2nc(C3CC3)cc2C2CC2)c(F)c1` [Example 36, N-[4-(3,5-dicyclopropyl-1H-pyrazol-1-yl)-3-fluorophenyl]-4-methylpyrimidine-5-carboxamide], 0.224 µM; for `Cc1nnsc1C(=O)Nc1ccc(-n2nc(C3CC3)c(Cl)c2C2CC2)c(F)c1` [Example 37, N-[4-(4-chloro-3,5-dicyclopropyl-1H-pyrazol-1-yl)-3-fluorophenyl]-4-methyl-1,2,3-thiadiazole-5-carboxamide], 0.181 µM. In the case of `Cc1ncsc1C(=O)Nc1ccc(-n2nc(C3CC3)cc2C2CC2)nc1` [Example 39, N-[6-(3,5-dicyclopropyl-1H-pyrazol-1-yl)pyridin-3-yl]-4-methylthiazole-5-carboxamide hydrochloride], the IC50 was determined as 0.851 µM. For `O=C(Nc1ccc(-n2nc(C3CC3)cc2C2CC2)nc1)c1c(F)cccc1F` [Example 45, N-[6-(3,5-dicyclopropyl-1H-pyrazol-1-yl)pyridin-3-yl]-2,6-difluorobenzamide hydrochloride], the IC50 is 0.436 µM.

As for `Cc1nnsc1C(=O)Nc1ccc(-n2nc(C(F)(F)F)cc2C2CC2)cc1` [Example 52, N-{4-[5-cyclopropyl-3-(trifluoromethyl)-1H-pyrazol-1-yl]phenyl}-4-methyl-1,2,3-thiadiazole-5-carboxamide], the IC50 was determined as 0.184 µM. In the case of `Cc1ncsc1C(=O)Nc1ccc(-n2nc(C(F)(F)F)cc2C2CC2)cc1` [Example 53, N-{4-[5-cyclopropyl-3-(trifluoromethyl)-1H-pyrazol-1-yl]phenyl}-4-methylthiazole-5-carboxamide], the IC50 came out at 0.072 µM. Consider `Cc1oncc1C(=O)Nc1ccc(-n2nc(C(F)(F)F)cc2C2CC2)cc1` [Example 56, N-{4-[5-cyclopropyl-3-(trifluoromethyl)-1H-pyrazol-1-yl]phenyl}-5-methylisoxazole-4-carboxamide], for which the IC50 amounted to 0.0632 µM. Turning to `Cc1noc(C)c1C(=O)Nc1ccc(-n2nc(C(F)(F)F)cc2C2CC2)cc1` [Example 57, N-{4-[5-cyclopropyl-3-(trifluoromethyl)-1H-pyrazol-1-yl]phenyl}-3,5-dimethylisoxazole-4-carboxamide], the IC50 worked out at 0.124 µM. For the compound `Cc1ccccc1C(=O)Nc1ccc(-n2nc(C(F)(F)F)cc2C2CC2)cc1` [Example 60, N-{4-[5-cyclopropyl-3-(trifluoromethyl)-1H-pyrazol-1-yl]phenyl}-2-methylbenzamide], the IC50 worked out at 0.12 µM. Same read-out and setting: next, `O=C(Nc1ccc(-n2nc(C(F)(F)F)cc2C2CC2)cc1)c1ccncc1F` [Example 67, N-{4-[5-cyclopropyl-3-(trifluoromethyl)-1H-pyrazol-1-yl]phenyl}-3-fluoroisonicotinamide]: 0.0204 µM. In the case of `Cc1ncsc1CNc1ccc(-n2nc(C(F)(F)F)cc2C2CC2)cc1` [Example 74, 4-[5-cyclopropyl-3-(trifluoromethyl)-1H-pyrazol-1-yl]-N-[(4-methylthiazol-5-yl)methyl]aniline], the IC50 amounted to 0.048 µM.

In the case of `Cc1ncsc1NC(=O)c1ccc(-n2nc(C(F)(F)F)cc2C2CC2)cc1` [Example 78, 4-[5-cyclopropyl-3-(trifluoromethyl)-1H-pyrazol-1-yl]-N-(4-methylthiazol-5-yl)benzamide], the IC50 was determined as 0.0341 µM. With `O=C(Nc1c(F)cccc1F)c1ccc(-n2nc(C(F)(F)F)cc2C2CC2)cc1` [Example 79, 4-[5-cyclopropyl-3-(trifluoromethyl)-1H-pyrazol-1-yl]-N-(2,6-difluorophenyl)benzamide], the IC50 turned out to be 0.124 µM. As to `Cc1ncsc1C(=O)Nc1ccc(-n2nc(C(F)(F)F)c(Cl)c2C2CC2)cc1` [Example 80, N-{4-[4-chloro-5-cyclopropyl-3-(trifluoromethyl)-1H-pyrazol-1-yl]phenyl}-4-methylthiazole-5-carboxamide], the IC50 worked out at 0.194 µM. For `Cc1nnsc1C(=O)Nc1ccc(-n2nc(C(F)(F)F)cc2C2CC2)c(F)c1` [Example 82, N-{4-[5-cyclopropyl-3-(trifluoromethyl)-1H-pyrazol-1-yl]-3-fluorophenyl}-4-methyl-1,2,3-thiadiazole-5-carboxamide], the IC50 worked out at 0.0357 µM.

Take `Cc1ncsc1C(=O)Nc1ccc(-n2nc(C(F)(F)F)cc2C2CC2)c(F)c1` [Example 83, N-{4-[5-cyclopropyl-3-(trifluoromethyl)-1H-pyrazol-1-yl]-3-fluorophenyl}-4-methylthiazole-5-carboxamide]: the IC50 turned out to be 0.0482 µM.

As for `Cc1oncc1C(=O)Nc1ccc(-n2nc(C(F)(F)F)cc2C2CC2)c(F)c1` [Example 84, N-{4-[5-cyclopropyl-3-(trifluoromethyl)-1H-pyrazol-1-yl]-3-fluorophenyl}-5-methylisoxazole-4-carboxamide], the IC50 was 0.0208 µM. Same read-out and setting: for `O=C(Nc1ccc(-n2nc(C(F)(F)F)cc2C2CC2)c(F)c1)c1cccc(F)c1F` [Example 87, N-{4-[5-cyclopropyl-3-(trifluoromethyl)-1H-pyrazol-1-yl]-3-fluorophenyl}-2,3-difluorobenzamide] the value was 0.0326 µM.

In the case of `Cc1ncncc1C(=O)Nc1ccc(-n2nc(C(F)(F)F)cc2C2CC2)c(F)c1` [Example 93, N-{4-[5-cyclopropyl-3-(trifluoromethyl)-1H-pyrazol-1-yl]-3-fluorophenyl}-4-methylpyrimidine-5-carboxamide], the IC50 was determined as 0.0813 µM. Same read-out and setting: next, `Cc1ncncc1NC(=O)Nc1ccc(-n2nc(C(F)(F)F)cc2C2CC2)c(F)c1` [Example 97, 1-{4-[5-cyclopropyl-3-(trifluoromethyl)-1H-pyrazol-1-yl]-3-fluorophenyl}-3-(4-methylpyrimidin-5-yl)urea]: 0.6 µM. As to `O=C(Nc1c(F)cccc1F)c1ccc(-n2nc(C(F)(F)F)cc2C2CC2)c(F)c1` [Example 100, 4-[5-cyclopropyl-3-(trifluoromethyl)-1H-pyrazol-1-yl]-N-(2,6-difluorophenyl)-3-fluorobenzamide], the IC50 was 0.0997 µM. In the case of `Cc1nnsc1C(=O)Nc1ccc(-n2nc(C(F)(F)F)cc2C2CC2)nc1` [Example 101, N-{6-[5-cyclopropyl-3-(trifluoromethyl)-1H-pyrazol-1-yl]pyridin-3-yl}-4-methyl-1,2,3-thiadiazole-5-carboxamide], the IC50 was found to be 0.15 µM. Take `Cc1ccccc1C(=O)Nc1ccc(-n2nc(C(F)(F)F)cc2C2CC2)nc1` [Example 104, N-{6-[5-cyclopropyl-3-(trifluoromethyl)-1H-pyrazol-1-yl]pyridin-3-yl}-2-methylbenzamide]: the IC50 is 0.023 µM.
